Data reported in ChEMBL document CHEMBL1201862, “PubChem BioAssay data set” (2004).
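Protocol summary: plate cells (96-well), add compound at 5 concentrations, incubate 48 h, interpolate endpoints linearly. The concentration for 50% growth inhibition is given as GI50.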 Activity calls are given as the source filed them. Rule as the data show it: active = GI50 up to about 1.1 µM and inactive = higher.

How the values were obtained:
Experiment in all cases: growth of human tumour cells (NCI), 48 h
786-0 = system: 786-0
A498 = system: A498
A549 = system: A549
ACHN = system: ACHN
BT-549 = system: BT-549
CAKI-1 = system: CAKI-1
CCRF-CEM = system: CCRF-CEM
COLO 205 = system: COLO 205
DU-145 = system: DU-145
EKVX = system: EKVX
HCC 2998 = system: HCC 2998
HCT-116 = system: HCT-116
HCT-15 = system: HCT-15
HL-60 = system: HL-60
HOP-62 = system: HOP-62
HOP-92 = system: HOP-92
HT-29 = system: HT-29
Hs-578T = system: Hs-578T
IGROV-1 = system: IGROV-1
K562 = system: K562
KM12 = system: KM12
LOX IMVI = system: LOX IMVI
M14 = system: M14
MCF7 = system: MCF7
MDA-MB-231 = system: MDA-MB-231
MDA-MB-435 = system: MDA-MB-435
MDA-N = system: MDA-N
MOLT-4 = system: MOLT-4
Malme-3M = system: Malme-3M
NCI-H226 = system: NCI-H226
NCI-H23 = system: NCI-H23
NCI-H460 = system: NCI-H460
NCI-H522 = system: NCI-H522
NCI/ADR-RES = system: NCI/ADR-RES
OVCAR-3 = system: OVCAR-3
OVCAR-4 = system: OVCAR-4
OVCAR-5 = system: OVCAR-5
OVCAR-8 = system: OVCAR-8
PC-3 = system: PC-3
RPMI-8226 = system: RPMI-8226
RXF 393 = system: RXF 393
SF-268 = system: SF-268
SF-295 = system: SF-295
SF-539 = system: SF-539
SK-MEL-28 = system: SK-MEL-28
SK-MEL-2 = system: SK-MEL-2
SK-MEL-5 = system: SK-MEL-5
SK-OV-3 = system: SK-OV-3
SN12C = system: SN12C
SNB-19 = system: SNB-19
SNB-75 = system: SNB-75
SW-620 = system: SW-620
T47D = system: T47D
TK-10 = system: TK-10
U-251 = system: U-251
UACC-257 = system: UACC-257
UACC-62 = system: UACC-62
UO-31 = system: UO-31

Measured: GI50

Cc1cc2oc(=O)c(Cl)c(Cl)c2c(C)c1Cl
3.5 µM: HCT-15
inactive: 786-0 3.15 µM | A498 19.9 µM | A549 15.7 µM | ACHN 11.2 µM | BT-549 7.26 µM | CAKI-1 4.74 µM | CCRF-CEM 2.83 µM | COLO 205 2.56 µM | DU-145 14.6 µM | EKVX 14.8 µM | HCC 2998 5.51 µM | HCT-116 3.78 µM | HL-60 1.91 µM | HOP-62 24.6 µM | HOP-92 1.58 µM | HT-29 4.78 µM | Hs-578T 2.59 µM | IGROV-1 4.3 µM | K562 1.95 µM | KM12 15.1 µM | LOX IMVI 2.76 µM | M14 10.4 µM | MCF7 5.64 µM | MDA-MB-231 11 µM | MDA-MB-435 4.25 µM | MDA-N 2.92 µM | MOLT-4 2.1 µM | Malme-3M 10.8 µM | NCI-H226 17.3 µM | NCI-H23 6.28 µM | NCI-H460 16.7 µM | NCI-H522 14.3 µM | NCI/ADR-RES 5.5 µM | OVCAR-3 2.58 µM | OVCAR-4 4.28 µM | OVCAR-5 12.1 µM | OVCAR-8 3.28 µM | PC-3 11.4 µM | RPMI-8226 2.35 µM | RXF 393 2.84 µM | SF-268 3.22 µM | SF-295 14.4 µM | SF-539 9.35 µM | SK-MEL-28 15.4 µM | SK-MEL-2 4.44 µM | SK-MEL-5 6.93 µM | SK-OV-3 14.4 µM | SN12C 11.5 µM | SNB-19 11.8 µM | SNB-75 12.4 µM | SW-620 1.37 µM | T47D 5.46 µM | TK-10 14.8 µM | U-251 3.19 µM | UACC-257 15.1 µM | UACC-62 6.71 µM | UO-31 12.7 µM
